Among the data in patent publication US7192967B1, “Cyclic imide-substituted pyridylalkane, alkene, alkine carboxamides useful as cytostatic and immunosuppressive agents” (Astellas Pharma GmbH, priority 1997, dated 2007) are IC50 values, retold here.

The term IC50 denotes the concentration that inhibits the measured activity by half.

Test [1] deals with lymphocytes from the spleen of a Swiss mouse. In words: Immunosuppressing activity on freshly isolated lymphocytes, vital cells by flow-through cytometer after 2 days. The test is classed as cell-based. The settings on record: vital cells after 2 days. An excerpt: Many anti-tumor agents have not only a cytotoxic effect on tumor cells, but also on the blood cell system. This leads to a weakening of the immune defence, which can, in turn, be specifically employed to suppress the rejection reaction after an organ transplantation for example. Also use of the main compounds, optionally in combination with other immunological diseases (for example, psoriasis or autoimmune diseases) seems likely. In order to test the possibility for a therapeutic use in illnesses of this type, the substance activity was tested on freshly isolated lymphocytes as follows:
The spleen of a Swiss mouse served as a lymphocyte source. The lymphocyte population was isolated from the spleen cell suspension over a ficoll gradient and taken up in IMEM-ZO culture medium with 0.1% dextran 70,000 and 2% foetal calf serum. […] Subsequently, 10,000 cells per each sample were measured on a flow-through cytometer and the percentage amount of vital cells in the population was determined. By means of the dose-response curves, IC50-values were calculated which were also employed in the following Tables for the characterization of the individual substances: […]

For test [2], the system named is HepG2 cells derived from a human liver carcinoma. In words: Growth inhibition of HepG2 cells, sulforhodamin-B-method, six days. The format is cell-based. The settings on record: six days of substance incubation. As to the method: HepG2 cells derived from a human liver carcinoma plated at a density of 20,000 cells/ml in 12-well plastic dishes. Cultivation occurred in Richters IMEM-ZO nutrient medium with 5% foetal calf serum (FCS) in a tissue culture incubator with a gas mixture of 5% CO2 and 95% air at a temperature of 37° C. One day after plating, the culture medium was aspirated from the cells and replaced by fresh medium which contained the respective concentrations of the test substances. For the individual concentrations and the controls without test substances, three-fold batches were done for each. Three days after the beginning of treatment, the medium was again renewed with the test compounds. After six days of substance incubation, the test was ended and the protein amount in the individual wells was determined with the sulforhodamin-B-method (according to P. Skehan et al.: New Colorimetric Cytotoxicity Assay for Anticancer-Drug Screening. J. Natl. Cancer Inst. 82: 1107–1112, 1990). The IC50-values (defined as that concentration in which the cell growth was inhibited by 50%) was taken from the dose-response curves and given as a comparative measurement for the activity of the test compounds.

Regarding “N-[6-(2,5-dioxo-3,4-diphenyl-2,5-dihydropyrrol-1-yl)-hexyl])-3-pyridin-3-yl-acrylamide [substance 58]”, the IC50 in test [1] came to 60 nM; in test [2], 500 nM.
